Activity calls are given as the source filed them.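 Rule for the calls: active = Aurora B inhibition with potency within ten times the top dose, in every repeat test; inconclusive = repeat tests disagree in their calls; inactive = every repeat test inactive.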
The compounds below were run against Aurora kinase B (Homo sapiens) (UniProt Q96GD4) (assay: AURKB enzyme activity inhibitors – biochemical, scintillation, dry powder, set 3, counter-screen for STK33 inhibitor project, dose response (AID 588808)). Conditions: Recombinant Aurora B, 33P-ATP filter-binding scintillation.
Sequence of Aurora kinase B (Homo sapiens) (Q96GD4 whole entry, looked up): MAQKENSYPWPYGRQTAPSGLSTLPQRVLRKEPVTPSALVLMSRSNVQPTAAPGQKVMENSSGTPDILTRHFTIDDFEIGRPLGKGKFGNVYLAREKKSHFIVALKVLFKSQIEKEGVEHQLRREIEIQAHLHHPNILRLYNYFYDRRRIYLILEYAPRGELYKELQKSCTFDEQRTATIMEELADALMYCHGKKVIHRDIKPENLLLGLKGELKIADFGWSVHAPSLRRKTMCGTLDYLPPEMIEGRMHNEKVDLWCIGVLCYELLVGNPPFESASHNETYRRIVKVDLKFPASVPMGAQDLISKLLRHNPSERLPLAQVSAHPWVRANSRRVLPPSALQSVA

AC50 [µM]	Structure (SMILES)
7.79	CC(C)c1ccc(NC(=O)c2cccs2)c(-c2nc3ccccc3[nH]c2=O)c1

Same assay, conditions: Recombinant Aurora B, 33P-ATP filter-binding scintillation; at 10 µM (top of the series)

activity change, negative = inhibition	Structure (SMILES)
inactive	O=C(Nc1ccccc1-c1nc2ccccc2[nH]c1=O)c1cccnc1
inactive	O=C(Nc1ccccc1-c1nc2ccccc2[nH]c1=O)c1cccc(Cl)c1
inactive	COc1ccc(C(=O)Nc2ccccc2-c2nc3ccccc3[nH]c2=O)cc1
inactive	O=C(Nc1ccccc1-c1nc2ccccc2[nH]c1=O)c1ccc(F)cc1
inactive	O=C(Nc1ccccc1-c1nc2ccccc2[nH]c1=O)c1cccs1

Second part, the compound before the results:

Structure (SMILES)	activity change, negative = inhibition
O=C(Nc1ccc(Cl)cc1-c1nc2ccccc2[nH]c1=O)c1cccs1	inactive
O=C(Nc1ccc(OC(F)(F)F)cc1-c1nc2ccccc2[nH]c1=O)c1cccs1	inactive
O=C(Nc1cc(F)ccc1-c1nc2ccccc2[nH]c1=O)c1cccs1	inactive
O=C(Nc1ccc(F)cc1-c1nc2ccccc2[nH]c1=O)c1cccs1	inactive
O=C(Nc1ccccc1-c1nc2ccccc2[nH]c1=O)c1ccccn1	inactive
COc1ccc(NC(=O)c2cccs2)c(-c2nc3ccccc3[nH]c2=O)c1	inactive
O=C(Nc1cc(Cl)ccc1-c1nc2ccccc2[nH]c1=O)c1cccs1	inactive
